Reference: patent US20050276832A1, “Topical compositions and uses thereof for treating aquatic animals subjected to disinfection and vaccination” (Veterquimica Ltda., priority 2004, published 2005)

Tested on: Saprolengia sp.
Test: Antifungal bath treatment of Atlantic salmon infected by Saprolengia sp.
Assay type: in vivo
Settings: 1 h baths on Day 1 and Day 7
From the text: Five groups were formed, made up of 30 fish each of the Atlantic salmon species, 40-50 grams, showing clear signs of infection by the fungus Saprolengia sp., confirmed by laboratory tests. One of the groups was preserved as control without treatment, while the four remaining groups were subjected to experimental antifingal treatments. In this way, the groups were set up as follows: • GROUP 1: Without antifungal treatment • GROUP 2: Treated with the antifungal product bronopol, according to recommended dose of 20 ppm • GROUP 3: Treated with the Formulation A, in a dose of 28 ml/70 liters of water • GROUP 4: Treated with the Formulation B, in a dose of 28 ml/70 liters of water • GROUP 5: Treated with the Formulation C, in a dose of 28 ml/70 liters of water
The treatments consisted of the following: on Day 1, the fish were submerged for one hour in a bath with 70 liters of water to which the corresponding formulation had been added. Afterwards, they were transferred to breeding tanks that only contained water and with a standard feeding regime, all under the customary aquarium control that includes controlling the temperature (16-17 degrees C.), dissolved oxygen levels not lower than 7 ppm, and control of nitrites and ammonium. On Day 7, the fish were subjected to a second bath, similar to that of Day 1, to continue their development until 14 days of breeding had been completed, keeping a record of the fish killed due to the effect of the Saprolengia fungus. On Day 15, the fish that survived were harvested and the level of infection by Saprolengia was determined for each fish.
The infection level was classified according to the following scale: • INFECTION GRADE 0: healthy fish, without fungus on the skin • INFECTION GRADE 1: fish having only fungal spots on the skin. • INFECTION GRADE 2: fish with short fungal hypha • INFECTION GRADE 3: fish having necrosis of the tissues • INFECTION GRADE 4: fish with cottony hypha • INFECTION GRADE 5: fish dead due to fungal infection (occurring during the 14 days of breeding) Results

**Q.** `O=[N+]([O-])C(Br)(CO)CO` [bromopol, bromo-2-nitropropane-1.3-diol] was tested. Which “fish with grade 5 (death)” value (30 fish per group, dead due to fungal infection during 14 days of breeding) did it give?
**A.** The value was 50%.

**Q.** And the “fish with grade 1-2” value (infection level on Day 15, grade 1 fungal spots, grade 2 short fungal hypha)?
**A.** The value was 40%.

**Q.** What about the “fish with grade 0 (healthy)” value (infection level on Day 15, without fungus on the skin) of the same molecule?
**A.** The value was 10%.
